Assay [1] concerns MES-SA human uterine sarcoma cells. The assay can be described thus: Cytotoxicity assay, luminescence ATP detection, MES-SA. The assay is classed as cell-based. Conditions: Homo sapiens, 72 h, three days incubation, ATP content, highest concentration 10^-5 M, read-out: ED50 (nM) MES-SA. Here is the method: (§1) The cytotoxicities of the new anthracyclines were tested in vitro with two cell lines: human uterine sarcomas MES-SA (CRL-1976; American Type Culture Collection (ATCC), Rockville, Md., USA) and MES-SA/D×5 (CRL-1977; ATCC, Rockville, Md., USA). MES-SA/D×5 has been developed by growing MES-SA cells in increasing concentrations of doxorubicin (Harker and Sikic, 1985).
(§2) Monolayer cultures were grown in McCoy's 5A medium with L-glutamine (Gibco BRL) supplemented with 10% FBS (Foetal Bovine Serum, Gibco BRL). No antibiotics were added. As the resistance is stable for at least 20 passages, the MES-SA/D×5 cells were grown without anthracycline selection (Harker and Sikic, 1985). Cells were maintained at 37° C. with 5% CO2 and subcultured every 3-5 days.
(§3) The cytotoxicity tests were performed in 96-well microtiter plates (sterile white plates with clear bottom, Corning Costar Corporation, Cambridge, Mass., USA). The anthracyclines were pipetted into the plates in 10 μl of ethanol, pure ethanol was used for control plates. Daunorubicin and aclarubicin were used as positive controls. When the ethanol had evaporated, the cells were seeded into the plates in 100 μl of appropriate medium. The number of cells seeded per well was 2500 with MES-SA, 3000 with MES-SA/D×5, 3000 with LL/2, 2000 with B16-F0 and B16-F1, 2000 with KLN-205 and 8000 with MLTC-1. The ATP content of the cells was measured after incubating the cells for three days at 37° C. with 5% CO2.
(§4) The growth medium was removed by turning the plates over, and 200 μl of ATP extraction reagent, Somalyze, were added to the wells. The plates were then incubated for 30 minutes at room temperature. The ATP measurement was performed with Luminoskan luminometer (Labsystems Oy, Helsinki, Finland) at 22° C. 20 μl of ATP monitoring reagent containing luciferin and luciferase was dispensed, and an integral measurement of 10 s with 2 s lag time was performed for each well. All reagents used were supplied by Bio-Orbit Oy, Turku, Finland.
(§5) The direct luminometer output (in relative light units, RLUS) was used to calculate the cytotoxic effect. This light signal is directly proportional to the amount of […] in a wide range (determined with Bio-Orbit ATP standard, data not shown). On the other hand, the amount of ATP is directly proportional to the amount of living cells (Kangas et al., 1984). The results are expressed as percentages of the control value of untreated cells. An IC50 value (the drug concentration resulting to an ATP signal of 50% of the untreated control signal) was graphically estimated from the % of control vs. drug concentration plot.

For assay [2], the system named is MES-SA/D×5 uterine sarcoma cells (doxorubicin-resistant, MDR). The assay can be described thus: Cytotoxicity assay, luminescence ATP detection, MES-SA/D×5. The assay is classed as cell-based, human. As to conditions: Homo sapiens, 72 h; MES-SA/D×5 cells, three days incubation, ATP content; highest concentration 10^-5 M; read-out: ED50 (nM) MES-SA/D × 5. On the procedure:
as §1, §2, §3, §4, §5

The subject of assay [3] is B16-F0 melanoma. As to the kind of experiment: Cytotoxicity assay, ATP detection, B16-F0. The assay is classed as cell-based, mouse. Conditions: Mus musculus, B16F0; B16-F0 cells in vitro; read-out: ED50 B16-F0. Here is the method:
as §3, §4, §5
(§6) H075-4a was also tested with several mouse cell lines in vitro (all were purchased from ATCC, Rockville, Md., USA): Lewis lung carcinoma (LL/2) (CRL-1642), B16-F0 melanoma (CRL-6322), B16-F1 melanoma (CRL-6323), KLN-205 lung squamous cell carcinoma (CRL-1453) and MLTC-1 leydig cell tumor (CRL-2065) using daunomycin, aclarubicin and H075-1a (MA 144U1) as references.
(§7) All cells grew as monolayers and were cultured at 37° C. with 5% CO2 according to ATCC standard instructions for each cell line: LL/2 in Dulbecco's modified Eagle's medium with 4.5 g/l glucose and 10% FCS, B16-F0 and B16-F1 in MEM (Eagle) in Earle's BSS with non-essential amino acids and 10% FCS, KLN-205 in MEM (Eagle) in Earle's BSS with non-essential amino acids and 10% FCS, MLTC-1 in RPMI 1640 with 25 mM HEPES and 10% FBS. All media were purchased from Gibco BRL, the serum was Gibco BRL Foetal Bovine Serum. […]

Assay [4] concerns B16-F1 melanoma. The assay can be described thus: Cytotoxicity assay, ATP detection, B16-F1. In kind it is cell-based, mouse. As to conditions: Mus musculus; B16-F1 cells in vitro; read-out: ED50 B16-F1. Here is the method:
as §3, §4, §5, §6, §7

The test system of assay [5] is KLN-205 lung squamous cell carcinoma. As to the kind of experiment: Cytotoxicity assay, ATP detection, KLN-205. The assay is classed as cell-based, mouse. Conditions: Mus musculus; KLN-205 cells in vitro; read-out: ED50 KLN-205. On the procedure:
as §3, §4, §5, §6, §7

Assay [6] concerns Lewis lung carcinoma (LL/2). As to the kind of experiment: Cytotoxicity assay, ATP detection, LL/2. The assay is classed as cell-based, mouse. As to conditions: Mus musculus; LL/2 cells in vitro; read-out: ED50 LL/2. Here is the method:
as §3, §4, §5, §6, §7

The subject of assay [7] is MLTC-1 leydig cell tumor. The assay can be described thus: Cytotoxicity assay, ATP detection, MLTC-1. The assay is classed as cell-based, mouse. As to conditions: Mus musculus, Leydig; MLTC-1 cells in vitro; read-out: ED50 MLTC-1. Here is the method:
as §3, §4, §5, §6, §7

For assay [8], the system named is SK-N-MC. The assay can be described thus: Cytotoxicity assay, ATP detection, SK-N-MC. In kind it is cell-based. As to conditions: SK-N-MC cells in vitro; read-out: ED50 SK-N-MC.
Assay [9] relates to L1210 mouse lymphocytic leukemia cells. As to the kind of experiment: Flow cytometry (mode of action), cell cycle phases. In kind it is cell-based. Conditions: for G1 (%) / G2 (%) / S + M (%) / Cells (1000/ml): L1210 cells, 24 h incubation; for G1 (%): percentage of cells in phase G1; for G2 (%): percentage of cells in phase G2; for S + M (%): percentage of cells in phases S + M; for Cells (1000/ml): starting cell number 46000 cells/ml. Here is the method: L1210 mouse lymphocytic leukemia cells growing in suspension culture were maintained at exponential growth in Dulbecco's modified Eagle's medium with 4.5 g/l glucose and 10% FBS, at 37° C. with 5% CO2. The experiments were started by adding the ethanol-dissolved anthracyclines, in amounts yielding to the appropriate final concentrations, to 25 cm^2 cell culture flasks. After the ethanol had evaporated, 5 ml of an approximately 50 000 cells per ml suspension was added to the flasks. Flow cytometric analysis was made of the original cell suspension and after one, two and three days incubation with or without the drugs.
Cells were prepared for flow cytometric DNA analysis according to the method of Vindelov et al. (1985). The analysis was performed with an Epics XL flow cytometer (Coulter Corporation, Miami, Fla.). Samples were illuminated with a […] air-cooled argon ion laser (488 nm) and the fluorescence of propidium iodide was detected through 620-nm band pass filter. The number of cells in each sample was separately counted by adding an internal calibrator (50 μl of a solution containing 1×10^6 Fluoresbrite beads/ml) to 50 μl of cell suspension.
Based on the flow cytometric studies, the cell cycle phases for the cells studied could be detected. Phase G1 is the stage for RNA and protein synthesis, but not for replication. Transition from phase G1 to phase S means the initiation of replication, and the phase will last until all of the DNA has been replicated. The period from phase S up to mitosis (M) is phase G2.
On the technique in general: A flow cytometer gives signals particle by particle.

Assay [10] concerns MES-SA/D×5 uterine sarcoma cells (doxorubicin-resistant, MDR). Conditions: relative to MES-SA; Harker and Sikic, 1985; cited from earlier work.

On to `CC[C@@]1(O)C[C@H](O[C@H]2C[C@H](N(C)C)[C@H](O[C@H]3C[C@H](O)[C@H](O[C@H]4CCC(=O)[C@H](C)O4)[C@H](C)O3)[C@H](C)O2)c2c(cc3c(c2O)C(=O)c2c(O)cccc2C3=O)[C@H]1C(=O)OC` [Aclarubicin], for which the EC50 was found to be 2 nM in assay [1]; 12 nM in assay [2]; 3 nM in assay [3]; 4 nM in [4]; 12 nM in assay [5]; 5 nM in assay [6]. For the same compound, the values for the EC50 in assay [7] and in assay [8] were 70 nM and 9 nM, respectively. For the same compound, the “G1 (%)” value is 43% in assay [9] (concentration 1 × 10^−8M) and 47% in assay [9] (concentration 3.3 × 10^−8M). Also, the “G2 (%)” value in assay [9] (concentration 1 × 10^−8M) turned out to be 14%; in assay [9] (concentration 3.3 × 10^−8M) it was 29%. The “S + M (%)” value in assay [9] (concentration 1 × 10^−8M) turned out to be 43%; in assay [9] (concentration 3.3 × 10^−8M), 24%. Moreover, the results for the “Cells (1000/ml)” value in assay [9] (concentration 1 × 10^−8M) and in assay [9] (concentration 3.3 × 10^−8M) were 101 1000/ml and 78 1000/ml, respectively. Besides, the “cell cycle phase in which cells are arrested” value in assay [9] (flow cytometric DNA analysis) is recorded as “phase G1”.
Regarding `COc1cccc2c1C(=O)c1c(O)c3c(c(O)c1C2=O)C[C@@](O)(C(=O)CO)C[C@@H]3O[C@H]1C[C@H](N)[C@H](O)[C@H](C)O1` [doxorubicin], the “resistance of MES-SA/D×5 variant to doxorubicin” value in assay [10] is recorded as 100 fold.

The record behind these values is patent US6399583B1, “Hybrid anthracyclines from genetically engineered streptomyces galilaeus strains, process for production and uses thereof” (Galilaeus Oy, priority 1998, dated 2002).
